# Experimental data from US20060110710A1, “Endodontic ozone therapy” (priority 2001, published 2006).
# What was measured:
# Month ulcerations = assay: Effect of ozone in the treatment of mouth ulcerations; assay type: in vivo; conditions: exposed to ozone
# [1] = 1H NMR evaluation of the oxidative consumption of salivary biomolecules by ozone; conditions: O3 for 30 seconds; unstimulated human saliva 0.60 ml; 1H NMR 600 MHz
# Source text: Ozone is one of nature's most powerful oxidants which accounts for its ability to kill bacteria, spores and viruses. Uniquely, ozone decomposes to a harmless, non-toxic and environmentally safe material (oxygen). In this investigation, a multicomponent evaluation of the oxidative consumption of salivary biomolecules by ozone (O3) has been performed using high resolution proton (^1H) nuclear magnetic resonance (NMR) spectroscopy. The ozone-generating equipment employed in this study was designed by Purezone Ltd. (Ipswich, U.K.). Unstimulated human saliva samples were collected from 8 patients and each of them was divided into two equivalent portions (0.60 ml). The first of these was treated with O3 generated from the above device for a period of 30 seconds; the second group of portions served as controls. Samples were subjected to ^1H NMR analysis at an operating frequency of 600 MHz. […] High field ^1H NMR spectroscopy provides much useful analytical data regarding the fate of O3 in human saliva, information which is of much relevance to its potential therapeutic actions in vivo.
# [2] = tested on: Streptococcus sobrinus; TH 21; assay: Ozone on S. sobrinus on saliva coated glass beads; assay type: cell-based; conditions: 10 seconds of ozone on saliva coated glass beads
# Source text: The aims of these studies were to evaluate the efficiency of ozone on primary root caries and associated micro-organisms (Streptococcus sobrinus; TH 21 Streptococcus mutans; NCTC 10449). In study 1, 40 soft primary root carious lesions (PRCLs) from freshly extracted teeth were used and randomly divided into two groups to test the exposure to ozone for either 10 or 20 seconds. There was a significant (p<0.001) difference (Mean±SE) between the control samples for either 10 seconds (log10 5.91±0.15) or 20 seconds (log10 6.18±0.21) and ozone treated samples for either 10 seconds (log10 3.57±0.37) or 20 seconds (log10 3.77±0.42). In study 2, 40 sterile saliva coated glass beads were put into bijoux bottles with 3 mls of Todd Hewitt broth for control and test groups. S. sobrinus and S. mutans were inoculated and incubated anaerobically overnight. Each glass bead was washed with 2 mls of PBS. Immediately, 10 seconds of ozone was applied to the glass beads in the test groups. Subsequently, each glass bead in the test and control groups was placed in 3 mls of Todd Hewitt broth with six more sterile glass beads and were vortexed for 30 seconds. After decimal dilutions, […] were spread on blood agar plates supplemented with 5% (V/V) horse blood and placed in an anaerobic chamber at 37° C. for two days. The number of each colony type was counted and calculated. […]
# Lactobacillus salivarius = assay: Ozone exposure of bacteria cultures (root canals); assay type: cell-based; conditions: exposed to ozone
# [3] = tested on: microorganisms associated with bad breath; assay: Effect of ozone in the treatment of bad breath; assay type: in vivo; conditions: mouth exposed to ozone
# Source text: Bad breath is caused, in part, by the retention and subsequent degradation of dead cellular material, by microorganisms, sloughed off continuously by a normal, healthy mouth.
# [4] = Ozone exposure of bacteria cultures (root canals); assay type: cell-based, Streptococcus aurous; conditions: exposed to ozone
# [5] = tested on: Microflora from Primary Root Caries; assay: Ozone effect on microflora from primary root caries ex-vivo; assay type: cell-based; conditions: for Mean ± SE of Total cfu (Log10): after 10 seconds of ozone treatment
# Source text: Primary root carious lesions (PRCL) are a major clinical problem. […] An ozone producing generator (Purezone Ltd., Ipswich, U.K.) was used in this ex-vivo study assessing the use of ozone on PRCL. In this study, soft PRCL requiring restoration were used as these are the most severe type of lesion found in humans. 20 freshly extracted teeth with PRCL requiring restoration were used. After plaque removal using a hand held standard fine nylon fiber sterile toothbrush with sterile water as a lubricant to cleanse the surface, each tooth was then isolated using sterile cotton wool rolls and dried using a dry sterile cotton wool roll. […] Each sample was weighed and immediately placed in 1 ml of Fastidious Anaerobe Broth (FAB). […] They were vortexed for 30 seconds to facilitate the extraction of any micro-organisms from the carious dentine and disperse any aggregates. After decimal dilution with FAB, […] of these was spread on Fastidious Anaerobe Agar (LabM, Bury, […].) supplemented with 5% (v/V) horse blood in an anaerobic chamber at 37° C. for four days. The mean±SE number of each colony type was counted and calculated. The procedure of Example 2 was repeated except that ozonized water was applied to the lesion for 20 seconds. […] The aims of these studies were to evaluate the efficiency of ozone on primary root caries and associated micro-organisms (Streptococcus sobrinus; TH 21 Streptococcus mutans; NCTC 10449). […] In study 2, 40 sterile saliva coated glass beads were put into bijoux bottles with 3 mls of Todd Hewitt broth for control and test groups. S. sobrinus and S. mutans were inoculated and incubated anaerobically overnight. Each glass bead was washed with 2 mls of PBS. […] Subsequently, each glass bead in the test and control groups was placed in 3 mls of Todd Hewitt broth with six more sterile glass beads and were vortexed for 30 seconds. After decimal dilutions, […] were spread on blood agar plates supplemented with 5% (V/V) horse blood and placed in an anaerobic chamber at 37° C. for two days. The number of each colony type was counted and calculated. […] This treatment regime is therefore an effective, quick, conservative and simple method to kill micro-organisms in primary root carious lesions.
# [6] = tested on: Lactobacillus acidophilus; assay: Ozone exposure of bacteria cultures (root canals); assay type: cell-based; conditions: exposed to ozone
# [7] = tested on: Inflamed human gingivitis; assay: Effect of ozone on gum disease; assay type: in vivo; conditions: after exposure to ozone
# Source text: Inflamed human gingivitis is exposed to ozone using the techniques herein described.
structure (smiles),measurement,setting,value
O=[O+][O-] [ozone],enzyme levels in the month ulcerations,Month ulcerations,alleviated and/or reduced
same,microorganisms in the ulceration,Month ulcerations,eliminated or reduced
same,effect of O3 treatment on salivary 3-D-hydroxybutyrate,[1],evidence for the O3-mediated oxidation of salivary 3-D-hydroxybutyrate
same,effect of O3 treatment on salivary methionine,[1],oxidation of the volatile sulphur compound precursor methionine to its corresponding sulphoxide
same,effect of O3 treatment on salivary polyunsaturated fatty acids,[1],oxidative consumption of salivary polyunsaturated fatty acids
same,effect of O3 treatment on salivary pyruvate,[1],oxidative decarboxylation of the salivary electron-donor pyruvate
same,"colony count, log10, Mean±SE",[2],1.09±0.36 log10
same,growth of the bacteria cultures,Lactobacillus salivarius,eliminated or inhibited
same,enzyme levels in the month,[3],alleviated and/or reduced
same,microorganisms associated with bad breath,[3],eliminated or reduced
same,growth of the bacteria cultures,[4],eliminated or inhibited
same,percentage of micro-organisms killed,[5]; 10 seconds of ozone treatment,more than 99%
same,Mean ± SE of Total cfu (Log10),[5]; soft PRCL of freshly extracted teeth,3.57±0.37 Log10
same,Mean ± SE of Total cfu (Log10),"[5]; soft PRCL of freshly extracted teeth, listed as Ozone",3.57 ± 0.37 Log10
same,"Total cfu, log10, mean±SE","[5]; after 20 seconds of ozone treatment, soft PRCL of freshly extracted teeth",3.77±0.42 log10
same,growth of the bacteria cultures,[6],eliminated or inhibited
same,enzyme levels in extracts from inflamed human gingiva,[7],alleviated and/or reduced
